According to patent publication US11051515B2, “3-acyl-benzamides and their use as herbicides” (Bayer Aktiengesellschaft, priority 2017, dated 2021):

Tests used:
[1] = system: PHBPU; experiment: Post-emergence action against PHBPU; format: in vivo, Pharbitis purpurea; details: for pest or weed control at 80 g/ha: Ipomoea purpurea, 504 h, post-emergence, dosage 80 g/ha
Procedure, shortened: (§1)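 Weeds grown in sandy loam in greenhouse, treated at one-leaf stage (2–3 weeks after sowing) with WP or EC formulations sprayed as aqueous suspension/emulsion at 600 to […] water with 0.2% wetting agent. Visual rating after about 3 weeks versus untreated controls, as % herbicidal action (100% = plants dead, 0% = like control).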

[2] = system: ALOMY; experiment: Pre-emergence action against ALOMY; format: in vivo, Alopecurus myosuroides; details: for pest or weed control at 320 g/ha: Alopecurus myosuroides, 504 h, dosage 320 g/ha, pre-emergence, scored visually after 3 weeks vs untreated controls, 100% = plants have died, 0% = like control plants, read-out: Pre-emergence action against ALOMY (herbicidal activity in percent); for Herbicidal efficacy against ALOMY: 80 g of a.i./ha
Procedure, shortened: (§2)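 Seeds sown in sandy loam in wood-fiber pots and covered with soil. Greenhouse growth; visual damage scored after 3 weeks versus untreated controls (100% = dead, 0% = like control).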

[3] = system: STEME; experiment: Pre-emergence action against STEME; format: in vivo, Stellaria media; details: for pest or weed control at 320 g/ha: Stellaria media, 504 h, Dosage 320 g/ha, pre-emergence
Procedure, shortened: as §2

[4] = system: ECHCG; experiment: Pre-emergence action against ECHCG; format: in vivo, Echinochloa crus-galli; details: for pest or weed control at 320 g/ha: Echinochloa crus-galli, 504 h, pre-emergence, dosage 320 g/ha, scored visually after 3 weeks vs untreated controls, read-out: Pre-emergence action against ECHCG (herbicidal activity); for Herbicidal efficacy against ECHCG: Table V3, pre-emergence, 80 g of a.i./ha
Procedure, shortened: as §2

[5] = system: LOLMU; experiment: Post-emergence action against LOLMU; format: in vivo, Lolium multiflorum; details: Lolium multiflorum, 504 h, dosage 80 g/ha, visual assessment about 3 weeks after treatment vs untreated controls, read-out: Post-emergence action against LOLMU (herbicidal action in percent)
Procedure, shortened: as §1

[6] = system: STEME; experiment: Post-emergence action against STEME; format: in vivo, Stellaria media; details: for pest or weed control at 80 g/ha: Stellaria media, 504 h, post-emergence, dosage 80 g/ha
Procedure, shortened: as §1

[7] = system: ALOMY; experiment: Post-emergence action against ALOMY; format: in vivo, Alopecurus myosuroides; details: for pest or weed control at 80 g/ha: Alopecurus myosuroides, 504 h, Dosage 80 g/ha, post-emergence
Procedure, shortened: as §1

[8] = system: LOLMU; experiment: Pre-emergence action against LOLMU; format: in vivo, Lolium multiflorum; details: Lolium multiflorum, 504 h, dosage 320 g/ha, scored visually after 3 weeks vs untreated controls, read-out: Pre-emergence action against LOLMU (herbicidal activity)
Procedure, shortened: as §2

[9] = system: CYPES; experiment: Pre-emergence action against CYPES; format: in vivo, Cyperus esculentus; details: for pest or weed control at 320 g/ha: Cyperus esculentus, 504 h, pre-emergence, dosage 320 g/ha, scored visually after 3 weeks vs untreated controls, read-out: Pre-emergence action against CYPES (herbicidal activity); for Herbicidal efficacy against CYPES: 80 g of a.i./ha
Procedure, shortened: as §2

[10] = system: LOLRI; experiment: Pre-emergence action against LOLRI; format: in vivo, Lolium rigidum; details: Lolium rigidum, 504 h, dosage 320 g/ha, scored visually after 3 weeks vs untreated controls, read-out: Pre-emergence action against LOLRI (herbicidal activity)
Procedure, shortened: as §2

[11] = system: DIGSA; experiment: Pre-emergence action against DIGSA; format: in vivo, Digitaria sanguinalis; details: dosage 320 g/ha, scored visually after 3 weeks vs untreated controls
Procedure, shortened: as §2

[12] = system: HORMU; experiment: Pre-emergence action against HORMU; format: in vivo, Hordeum murinum; details: Hordeum murinum, 504 h, Dosage 320 g/ha
Procedure, shortened: as §2

[13] = system: DIGSA; experiment: Post-emergence action against DIGSA; format: in vivo, Digitaria sanguinalis; details: dosage 80 g/ha, visual assessment about 3 weeks after treatment vs untreated controls
Procedure, shortened: as §1

[14] = system: LOLRI; experiment: Post-emergence action against LOLRI; format: in vivo, Lolium rigidum; details: Lolium rigidum, 504 h, dosage 80 g/ha, visual assessment about 3 weeks after treatment vs untreated controls, read-out: Post-emergence action against LOLRI (herbicidal action in percent)
Procedure, shortened: as §1

[15] = system: HORMU; experiment: Post-emergence action against HORMU; format: in vivo, Hordeum murinum; details: dosage 80 g/ha
Procedure: Seeds of monocotyledonous and dicotyledonous weed and crop plants are laid out in sandy loam soil in wood-fiber pots, covered with soil and cultivated in a greenhouse under good growth conditions. 2 to 3 weeks after sowing, the test plants are treated at the one-leaf stage. The compounds of the invention, formulated in the form of wettable powders (WP) or as emulsion concentrates (EC), are then sprayed onto the green parts of the plants in the form of an aqueous suspension or emulsion at a water application rate equating to […], with addition of 0.2% wetting agent. After the test plants have been left to stand in the greenhouse under optimal growth conditions for about 3 weeks, the action of the preparations is assessed visually in comparison to untreated controls (herbicidal action in percent (%): 100% activity=the plants have died, 0% activity=like control plants). […] At the same time, inventive compounds leave Gramineae crops such as barley, wheat, rye, millet/Sorghum, corn or rice virtually undamaged when applied post-emergence, even at high active ingredient dosages. In addition, some substances are also harmless to dicotyledonous crops such as soya, cotton, oilseed rape, sugar beet or potatoes. Some of the compounds according to the invention have high selectivity and are therefore suitable for controlling unwanted vegetation in agricultural crops by the post-emergence method. The data of Tables B18 to B34 below illustrate, in an exemplary manner, the […] herbicidal action of the compounds according to the invention, the herbicidal activity being stated in percent.

[16] = Table V18, post-emergence, 20 g of a.i./ha

Row | Structure (SMILES) | pest or weed control at 80 g/ha [1] | pest or weed control at 320 g/ha [2] | pest or weed control at 320 g/ha [3] | pest or weed control at 320 g/ha [4] | pest or weed control at 80 g/ha [5] | pest or weed control at 80 g/ha [6] | pest or weed control at 80 g/ha [7] | pest or weed control at 320 g/ha [8] | pest or weed control at 320 g/ha [9] | pest or weed control at 320 g/ha [10] | pest or weed control at 320 g/ha [12] | pest or weed control at 80 g/ha [14] | other results
1 | Cn1nnnc1NC(=O)c1ccc(C(F)(F)F)c(C(=O)C2CC2)c1Cl [1-141] | 100% | 100% | 100% | 100% | 100% | 100% | 100% | 100% | 100% | – | – | – | –
2 | CCCC(=O)c1c(C(F)(F)F)ccc(C(=O)Nc2nnnn2C)c1C [1-16] | 100% | 90% | 100% | 100% | – | 100% | 90% | – | – | 100% | 90% | 80% | Pre-emergence action against DIGSA (herbicidal activity) [11]: 100%; Post-emergence action against DIGSA (herbicidal action in percent) [13]: 90%
3 | Cn1nnnc1NC(=O)c1ccc(C(F)F)c(C(=O)C2CC2)c1Cl [1-168] | 100% | 100% | 100% | 100% | – | 100% | 100% | – | 90% | 100% | 100% | 100% | Post-emergence action against HORMU [15]: 100
4 | CSc1c(C(=O)Nc2nnnn2C)ccc(C(F)(F)F)c1C(=O)C1CC1 [1-60] | 90% | 100% | 100% | 100% | – | 100% | 100% | – | 100% | 100% | 100% | 100% | Post-emergence action against HORMU [15]: 100
5 | Cc1c(C(=O)Nc2nnnn2C)ccc(S(C)(=O)=O)c1C(=O)C1CC1 [1-9] | 100% | 90% | 80% | 100% | 90% | 100% | 100% | – | 80% | – | – | – | Herbicidal efficacy against PHBPU [1, 16]: 100; Herbicidal efficacy against STEME [6, 16]: 100; Herbicidal efficacy against ALOMY [7, 16]: 80; Herbicidal efficacy against CYPES ([9]; Table V6, pre-emergence): 70
6 | CC(=O)c1c(S(C)(=O)=O)ccc(C(=O)Nc2nnnn2C)c1Cl [1-127] | 100% | 100% | 90% | 100% | – | 90% | – | 80% | 90% | – | – | – | Herbicidal efficacy against PHBPU ([1]; Table V16, post-emergence, 5 g of a.i./ha): 70; Herbicidal efficacy against PHBPU ([1]; Table V16, post-emergence, 20 g of a.i./ha): 100; Herbicidal efficacy against ALOMY ([2]; Table V1, pre-emergence): 80; Herbicidal efficacy against ALOMY ([2]; Table V3, pre-emergence): 80; Herbicidal efficacy against STEME ([3]; Table V4, pre-emergence, 20 g of a.i./ha): 70; Herbicidal efficacy against ECHCG [4]: 100; Herbicidal efficacy against CYPES ([9]; Table V1, pre-emergence): 90; Herbicidal efficacy against CYPES ([9]; Table V3, pre-emergence): 90
7 | CC(=O)c1c(C(F)(F)F)ccc(C(=O)Nc2nnnn2C)c1Cl [1-137, 3-acetyl-2-chloro-N-(1-methyl-1H-tetrazol-5-yl)-4-(trifluoromethyl)benzamide] | 100% | 90% | 100% | 100% | 100% | 100% | 80% | 100% | 100% | – | – | – | –
8 | Cn1nnnc1NC(=O)c1ccc(S(C)(=O)=O)c(C(=O)C2CC2)c1Cl [1-129] | 100% | 100% | 100% | 100% | 80% | 100% | 100% | 100% | 100% | – | – | – | Herbicidal efficacy against ALOMY ([2]; Table V3, pre-emergence): 100; ECHCG ([4]; Table V2, pre-emergence, 20 g of a.i./ha): 90; Herbicidal efficacy against ECHCG [4]: 100; Herbicidal efficacy against ALOMY ([7]; Table V15, post-emergence, 5 g of a.i./ha): 70; Herbicidal efficacy against CYPES ([9]; Table V3, pre-emergence): 100
9 | CCC(=O)c1c(C(F)F)ccc(C(=O)Nc2nnnn2C)c1Cl [1-165] | 90% | 100% | 100% | 100% | – | 100% | 90% | – | – | 100% | 90% | 80% | Pre-emergence action against DIGSA (herbicidal activity) [11]: 100%; Post-emergence action against DIGSA (herbicidal action in percent) [13]: 100%
10 | CC(=O)c1c(C(F)F)ccc(C(=O)Nc2nnnn2C)c1Cl [1-164] | 90% | 100% | 100% | 100% | – | 90% | 90% | – | 100% | 100% | 90% | 90% | –
11 | CC(=O)c1c(I)ccc(C(=O)Nc2nnnn2C)c1Cl [1-192] | 80% | 100% | 100% | 100% | – | – | 80% | – | 90% | 100% | 100% | 100% | Post-emergence action against HORMU [15]: 100
12 | COc1c(C(=O)Nc2nnnn2C)ccc(C(F)(F)F)c1C(=O)C1CC1 [1-50] | 100% | 100% | 100% | 100% | 90% | 100% | 80% | 100% | 100% | – | – | – | –
13 | CSc1c(C(=O)Nc2nnnn2C)ccc(C(F)(F)F)c1C(C)=O [1-58] | 100% | 100% | 100% | 100% | 80% | 100% | 90% | 90% | 100% | – | – | – | –
